From PubChem BioAssay (NCI)
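48-hour exposure; five concentrations; linearly interpolated endpoints. At the GI50, growth is halved. The concentration for full growth arrest is given as TGI.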

What was measured:
Test in all cases: growth of human tumour cells (NCI), 48 h
[1] = system: MOLT-4 leukemia
[2] = system: SF-268 CNS
[3] = system: BT-549 breast
[4] = system: A498 renal
[5] = system: K-562 leukemia
[6] = system: DU-145 prostate
[7] = system: SR leukemia
[8] = system: OVCAR-8 ovarian
[9] = system: U251 CNS
[10] = system: HS 578T breast
[11] = system: LOX IMVI melanoma
[12] = system: RXF 393 renal
[13] = system: NCI-H23 lung
[14] = system: EKVX NSCLC
[15] = system: MDA-MB-468 breast
[16] = system: T-47D breast
[17] = system: OVCAR-5 ovarian
[18] = system: SK-MEL-5 melanoma
[19] = system: HCC-2998 colon
[20] = system: HL-60(TB) leukemia
[21] = system: TK-10 renal
[22] = system: OVCAR-4 ovarian
[23] = system: SNB-19 CNS
[24] = system: SN12C renal
[25] = system: A549 NSCLC
[26] = system: MDA-MB-231 breast
[27] = system: ACHN renal
[28] = system: MCF7 breast
[29] = system: COLO 205 colon
[30] = system: NCI-H226 lung
[31] = system: UACC-257 melanoma
[32] = system: KM12 colon
[33] = system: UACC-62 melanoma
[34] = system: HOP-92 NSCLC
[35] = system: NCI-H522 lung
[36] = system: SF-539 CNS
[37] = system: UO-31 renal
[38] = system: OVCAR-3 ovarian
[39] = system: RPMI-8226 leukemia
[40] = system: MDA-MB-435
[41] = system: SK-OV-3 ovarian
[42] = system: SNB-75 CNS
[43] = system: 786-0 renal
[44] = system: MALME-3M melanoma
[45] = system: SW-620 colon
[46] = system: SF-295 CNS
[47] = system: M14 melanoma
[48] = system: SK-MEL-28 melanoma
[49] = system: PC-3 prostate
[50] = system: CCRF-CEM leukemia
[51] = system: HCT-15 colon
[52] = system: CAKI-1 renal
[53] = system: IGROV1 ovarian
[54] = system: HCT-116 colon
[55] = system: NCI-H460 lung
[56] = system: HOP-62 NSCLC
[57] = system: HT29 colon

Compound: COc1ccc(N2N=C(c3ccc4c(c3)OCO4)CC2c2cccc(NC(=O)CCNS(=O)(=O)c3ccc(Cl)cc3)c2)cc1 (centres undefined)
- GI50 [1]: 4.71 µM
- TGI [1]: > 100 µM
- GI50 [2]: 11.6 µM
- TGI [2]: > 100 µM
- GI50 [3]: 3.03 µM
- TGI [3]: 20.3 µM
- GI50 [4]: 20.6 µM
- TGI [4]: 48.1 µM
- GI50 [5]: 3.97 µM
- TGI [5]: > 100 µM
- GI50 [6]: 13.6 µM
- TGI [6]: > 100 µM
- GI50 [7]: 4.68 µM
- TGI [7]: > 100 µM
- GI50 [8]: 82.8 µM
- TGI [8]: > 100 µM
- GI50 [9]: 20.5 µM
- TGI [9]: > 100 µM
- GI50 [10]: 10.6 µM
- TGI [10]: > 100 µM
- GI50 [11]: 12.1 µM
- TGI [11]: > 100 µM
- GI50 [12]: 4.98 µM
- TGI [12]: > 100 µM
- GI50 [13]: 22.6 µM
- TGI [13]: > 100 µM
- GI50 [14]: 4.36 µM
- TGI [14]: > 100 µM
- GI50 [15]: 7.03 µM
- TGI [15]: > 100 µM
- GI50 [16]: 7.96 µM
- TGI [16]: > 100 µM
- GI50 [17]: 51.6 µM
- TGI [17]: > 100 µM
- GI50 [18]: 22.8 µM
- TGI [18]: > 100 µM
- GI50 [19]: 8.75 µM
- TGI [19]: > 100 µM
- GI50 [20]: 25.7 µM
- TGI [20]: > 100 µM
- GI50 [21]: 38.6 µM
- TGI [21]: > 100 µM
- GI50 [22]: 19.1 µM
- TGI [22]: > 100 µM
- GI50 [23]: 16.4 µM
- TGI [23]: > 100 µM
- GI50 [24]: 14.4 µM
- TGI [24]: > 100 µM
- GI50 [25]: 42.4 µM
- TGI [25]: > 100 µM
- GI50 [26]: 8.11 µM
- TGI [26]: 96 µM
- GI50 [27]: 11.6 µM
- TGI [27]: > 100 µM
- GI50 [28]: 4.21 µM
- TGI [28]: > 100 µM
- GI50 [29]: 25.1 µM
- TGI [29]: > 100 µM
- GI50 [30]: 18 µM
- TGI [30]: > 100 µM
- GI50 [31]: 77.1 µM
- TGI [31]: > 100 µM
- GI50 [32]: 12 µM
- TGI [32]: > 100 µM
- GI50 [33]: 20.4 µM
- TGI [33]: > 100 µM
- GI50 [34]: 8.13 µM
- TGI [34]: 76.8 µM
- GI50 [35]: 2.73 µM
- TGI [35]: 7.92 µM
- GI50 [36]: 17.5 µM
- TGI [36]: > 100 µM
- GI50 [37]: 15.6 µM
- TGI [37]: > 100 µM
- GI50 [38]: 47.6 µM
- TGI [38]: > 100 µM
- GI50 [39]: 6.44 µM
- TGI [39]: > 100 µM
- GI50 [40]: 14.3 µM
- TGI [40]: > 100 µM
- GI50 [41]: 54.7 µM
- TGI [41]: > 100 µM
- GI50 [42]: 9.46 µM
- TGI [42]: > 100 µM
- GI50 [43]: 18.8 µM
- TGI [43]: > 100 µM
- GI50 [44]: 5.42 µM
- TGI [44]: > 100 µM
- GI50 [45]: 41.1 µM
- TGI [45]: > 100 µM
- GI50 [46]: 5.22 µM
- TGI [46]: 72.2 µM
- GI50 [47]: 9.12 µM
- TGI [47]: > 100 µM
- GI50 [48]: 7.37 µM
- TGI [48]: > 100 µM
- GI50 [49]: 4.61 µM
- TGI [49]: > 100 µM
- GI50 [50]: 5.4 µM
- TGI [50]: > 100 µM
- GI50 [51]: 7.25 µM
- TGI [51]: > 100 µM
- GI50 [52]: 8.88 µM
- TGI [52]: > 100 µM
- GI50 [53]: 39.8 µM
- TGI [53]: > 100 µM
- GI50 [54]: 9.05 µM
- TGI [54]: > 100 µM
- GI50 [55]: 11.3 µM
- TGI [55]: > 100 µM
- GI50 [56]: 63.4 µM
- TGI [56]: > 100 µM
- GI50 [57]: 7.96 µM
- TGI [57]: > 100 µM
